# Laboratory results as given in patent US20250074970A1, “METHOD OF PURIFYING IMMUNOGLOBULIN G AND USES THEREOF” (CSL Behring AG, priority 2021, published 2025).
# Test system: Vesicular stomatitis virus (VSV)
# Assay type: cell-based
# Conditions: 30 mM final concentration of OG at 5° C., VSV spiked CRP
compound,measurement,value
"CCCCCCCCO[C@@H]1O[C@H](CO)[C@@H](O)[C@H](O)[C@H]1O [OG, N-Octyl-β-D-Glucopyranoside]",log 10 reduction factor (LRF),≥ 5.3
